Data reported in patent US12378247B2, “Mesylate salt of para-topolin, compositions containing said salt and use thereof” (USTAV EXPERIMENTALNI BOTANIKY AV CR, V. V. I., priority 2020, dated 2025).

What was measured:
[1] = ORAC (Oxygen Radical Absorbance Capacity), ability to scavenge free radicals; assay type: biochemical; settings: n = 3
Protocol: The ability of the substance to scavenge free radicals in vitro was determined using the ORAC (Oxygen Radical Absorbance Capacity) method. Briefly, 100 μl of fluorescein ([…]) and 25 μl of tested substance solution were pipetted into each well of a 96-well microtiter plate preheated to 37° C. The reaction itself was started by the addition of 25 μL 250 mM AAPH. After shaking for 5 s, the fluorescence (Ex. 485 nm, Em. 510 nm) was read every 3 min for 90 min using an Infinite 200 instrument (TECAN, Switzerland). The area under the curve was used to express the antioxidant capacity relative to trolox, which is used as a standard. […] Such activities are likely to be closely related to the electron-rich C6-hydroxybenzylamino substituent system.

[2] = test system: Human diploid fibroblast BJ; experiment: MTT cytotoxicity assay in normal fibroblasts; assay type: cell-based; settings: 72 hours
Protocol: MTT (metabolic tetrazolium toxicity) assay is a standard colorimetric assay for evaluation of cytotoxicity. Mitochondrial dehydrogenase activity converts yellow MTT into violet formazan which is measured by means of spectrometry. Human diploid fibroblast BJ (passage 18-22) were seeded into 96-well plate (5.000 cells per well). After 6 hours cultivation medium (DMEM with 5 g/l glucose, 2 mM glutamine, 100 U/ml penicillin, […] streptomycin, 10% fetal calf serum and sodium bicarbonate) was replaced with the cultivation medium containing test compounds in concentration range of 0-200 μM. Highest concentration was adjusted if the solubility of the compound was limiting. Every concentration was tested in pentaplicate. MTT was added to the cells after 72 hours incubation (final concentration 0.5 mg/ml) and incubation continued for another 3 hours. MTT was solubilised by DMSO and absorbance at 570 nm was measured. Growth inhibition (GI) was estimated using the following equitation: GI=(mean A drug exposed wells-mean Ablank/mean Acontrol wells−mean Ablank)×100%. The GI20 value, the drug concentration causing 20% decrease in mitochondrial dehydrogenase activity, was calculated from the obtained dose response curves.

Rat glioma C6 cells = experiment: Anti-inflammatory activity: isoproterenol-induced intracellular cAMP synthesis; assay type: cell-based; settings: isoproterenol-induced cAMP, C6 cells
Protocol: The anti-inflammatory activity of para-topolin and para-topolin mesylate was determined; cytokinin kinetin was also evaluated as a control. Rat glioma C6 cells (ATCC No. CCL107) were cultured in a monolayer in chemically defined beser medium containing Ham's F10/minimal essential medium (1:1 v/v), 2 mM L-glutamine, 1% (v/v). Minimum vitamins of essential medium (100×), 1% (v/v) minimum essential amino acids (100×), 100 U/ml penicillin, […] streptomycin and 30 nM sodium selenite. Incubation was performed at 37° C. in a 100% humidified atmosphere. The assays were performed in logarithmic growth phase at a density of 2.5×10^5 cells/cm^2. Intracellular cAMP synthesis was induced by the addition of 5 mM (−)-isoproterenol; at the same time, various concentrations of tested compounds were added at the same time as (−)-isoproterenol. After 30 minutes of incubation, the cellular amount of CAMP was determined by ELISA (cAMP-enzyme immunoassay from Amersham). IC50 values were determined from the […] dose-response curve.

Compound | ORAC Average(TE), Trolox equivalents on equimolar basis [1] | Cytotoxicity for Human Diploid Fibroblasts GI20 [2] | Anti-inflammatory activity (in words) (Rat glioma C6 cells)
Oc1ccccc1CNc1ncnc2nc[nH]c12 [6-(2-hydroxybenzylamino)purine (oT), 6-(2-hydroxybenzylamino)purine] | 7.026 TE |  | 
Oc1cccc(CNc2ncnc3nc[nH]c23)c1 [6-(3-hydroxybenzylamino)purine (mT), 6-(3-hydroxybenzylamino)purine] | 4.509 TE |  | 
OC[C@H]1O[C@@H](n2cnc3c(NCc4ccccc4)ncnc32)[C@H](O)[C@@H]1O [6-(benzylamino)purine riboside] |  | 1.7 µM | 
c1coc(CNc2ncnc3nc[nH]c23)c1 [6-furfurylaminopurine (kinetin), 6-furfurylaminopurine] |  | >167 µM | inactive
OC[C@H]1O[C@@H](n2cnc3c(NCc4ccco4)ncnc32)[C@H](O)[C@@H]1O [6-furfurylaminopurine riboside] |  | 2.1 µM | 
